# Laboratory results: patent US12358886B2, “Heterocyclic compounds for use in the treatment of cancer” (Artios Pharma Limited, priority 2019, dated 2025)
# Molecular target: Polθ protein (amino acids 2-2590) (Homo sapiens, UniProt O75417)
# Test: Polθ full length enzyme potency assay (PicoGreen)
# Settings: Polθ IC50 (nM), full length N-His, C-term FLAG tagged Polθ, PicoGreen fluorescence, 12 point concentration response
# Sequence of Polθ protein (amino acids 2-2590) (O75417 2-2590): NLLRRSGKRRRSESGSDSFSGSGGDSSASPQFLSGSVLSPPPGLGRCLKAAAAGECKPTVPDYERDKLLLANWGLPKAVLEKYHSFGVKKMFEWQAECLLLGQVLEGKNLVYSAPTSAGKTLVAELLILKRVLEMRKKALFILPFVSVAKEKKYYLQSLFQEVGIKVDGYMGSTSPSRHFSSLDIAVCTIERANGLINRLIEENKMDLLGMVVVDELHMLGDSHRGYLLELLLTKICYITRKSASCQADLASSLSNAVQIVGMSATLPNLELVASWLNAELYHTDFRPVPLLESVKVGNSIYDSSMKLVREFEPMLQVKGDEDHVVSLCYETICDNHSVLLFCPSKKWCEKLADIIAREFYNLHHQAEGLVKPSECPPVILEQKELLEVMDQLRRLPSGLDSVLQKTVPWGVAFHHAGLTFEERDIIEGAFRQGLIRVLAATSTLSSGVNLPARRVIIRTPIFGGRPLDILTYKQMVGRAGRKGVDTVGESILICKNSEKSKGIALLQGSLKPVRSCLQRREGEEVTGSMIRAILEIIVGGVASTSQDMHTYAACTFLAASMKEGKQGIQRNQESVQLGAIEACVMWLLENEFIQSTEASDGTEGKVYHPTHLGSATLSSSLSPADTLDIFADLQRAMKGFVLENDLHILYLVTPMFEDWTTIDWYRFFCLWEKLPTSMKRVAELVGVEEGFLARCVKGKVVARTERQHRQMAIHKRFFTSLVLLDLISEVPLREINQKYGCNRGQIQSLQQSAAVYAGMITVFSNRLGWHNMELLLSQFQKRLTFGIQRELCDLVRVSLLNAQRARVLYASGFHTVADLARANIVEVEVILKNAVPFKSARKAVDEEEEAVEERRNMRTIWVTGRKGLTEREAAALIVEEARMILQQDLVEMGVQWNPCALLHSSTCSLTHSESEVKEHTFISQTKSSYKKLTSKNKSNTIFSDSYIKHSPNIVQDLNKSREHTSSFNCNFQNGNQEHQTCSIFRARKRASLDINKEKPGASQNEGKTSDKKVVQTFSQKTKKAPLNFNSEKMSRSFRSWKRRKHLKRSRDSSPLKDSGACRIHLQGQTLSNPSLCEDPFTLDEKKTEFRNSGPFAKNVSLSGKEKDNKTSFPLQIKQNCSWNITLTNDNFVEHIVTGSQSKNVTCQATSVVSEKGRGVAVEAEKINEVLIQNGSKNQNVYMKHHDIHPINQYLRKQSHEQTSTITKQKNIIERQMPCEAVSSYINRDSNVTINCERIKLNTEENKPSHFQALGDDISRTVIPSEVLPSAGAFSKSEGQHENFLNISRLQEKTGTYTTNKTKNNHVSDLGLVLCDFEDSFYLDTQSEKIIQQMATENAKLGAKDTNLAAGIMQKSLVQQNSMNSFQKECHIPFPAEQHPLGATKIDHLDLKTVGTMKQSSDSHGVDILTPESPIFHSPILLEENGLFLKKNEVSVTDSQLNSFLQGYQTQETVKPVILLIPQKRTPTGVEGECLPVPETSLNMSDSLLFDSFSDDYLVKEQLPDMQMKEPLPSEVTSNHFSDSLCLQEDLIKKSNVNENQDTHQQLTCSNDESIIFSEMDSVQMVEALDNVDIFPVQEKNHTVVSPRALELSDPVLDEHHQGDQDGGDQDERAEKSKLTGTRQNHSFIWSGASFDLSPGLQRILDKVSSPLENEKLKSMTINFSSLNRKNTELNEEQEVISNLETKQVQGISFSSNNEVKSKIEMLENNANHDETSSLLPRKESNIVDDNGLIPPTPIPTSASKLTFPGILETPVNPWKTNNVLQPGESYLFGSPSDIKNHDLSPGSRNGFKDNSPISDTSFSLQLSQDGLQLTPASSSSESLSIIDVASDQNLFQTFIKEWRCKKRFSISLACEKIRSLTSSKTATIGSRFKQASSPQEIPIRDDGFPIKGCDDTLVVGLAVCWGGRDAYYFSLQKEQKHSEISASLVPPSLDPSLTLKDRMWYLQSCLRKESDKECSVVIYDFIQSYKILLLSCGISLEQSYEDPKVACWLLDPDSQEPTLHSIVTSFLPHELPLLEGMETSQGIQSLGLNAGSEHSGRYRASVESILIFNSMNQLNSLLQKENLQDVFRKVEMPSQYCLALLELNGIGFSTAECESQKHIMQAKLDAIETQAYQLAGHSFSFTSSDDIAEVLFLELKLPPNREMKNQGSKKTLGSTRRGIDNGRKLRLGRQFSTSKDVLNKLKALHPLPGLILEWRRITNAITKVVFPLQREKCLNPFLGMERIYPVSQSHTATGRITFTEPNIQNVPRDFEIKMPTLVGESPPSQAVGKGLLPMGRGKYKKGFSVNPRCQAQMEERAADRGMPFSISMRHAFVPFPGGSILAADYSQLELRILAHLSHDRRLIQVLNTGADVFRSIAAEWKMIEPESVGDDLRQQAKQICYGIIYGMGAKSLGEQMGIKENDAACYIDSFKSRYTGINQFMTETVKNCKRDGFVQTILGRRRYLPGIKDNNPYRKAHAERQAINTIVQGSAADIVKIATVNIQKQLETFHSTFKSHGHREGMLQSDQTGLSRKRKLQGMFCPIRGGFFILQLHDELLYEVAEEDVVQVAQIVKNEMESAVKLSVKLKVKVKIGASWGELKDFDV
row,SMILES,IC50
1,"CNC(=O)CCN1C[C@@H](C(=O)N(C)c2ccc(F)c(Cl)c2)N(c2cc(C(F)(F)F)cc(C)n2)C1=O [Example 191, (S)—N-(3-Chloro-4-fluorophenyl)-N-methyl-3-(6-methyl-4-(trifluoromethyl)pyridin-2-yl)-1-(3-(methylamino)-3-oxopropyl)-2-oxoimidazolidine-4-carboxamide]",12 nM
2,"CCN(C(=O)[C@@H]1C[C@H](N2CCOC(CO)C2)CN1c1nc(C)cc(C(F)(F)F)c1C#N)c1ccc(C)c(Cl)c1 (stereo partly drawn) [Example 149, (2S,4S)-N-(3-Chloro-4-methylphenyl)-1-(3-cyano-6-methyl-4-(trifluoromethyl)pyridin-2-yl)-N-ethyl-4-(2-(hydroxymethyl)morpholino)pyrrolidine-2-carboxamide]",5 nM
3,"Cc1cc(C(F)(F)F)cc(N2C(=O)N(CCN3CCNCC3)C[C@H]2C(=O)N(C)c2ccc(F)c(Cl)c2F)n1 [Example 192, (S)—N-(3-Chloro-2,4-difluorophenyl)-N-methyl-3-(6-methyl-4-(trifluoromethyl)pyridin-2-yl)-2-oxo-1-(2-(piperazin-1-yl)ethyl)imidazolidine-4-carboxamide]",9 nM
4,"Cc1cc(C(F)(F)F)cc(N2C(=O)[C@@H](O)[C@@H](O)[C@H]2C(=O)N(C)c2ccc(Cl)cc2F)n1 [Example 165, (2S,3S,4S)—N-(4-Chloro-2-fluorophenyl)-3,4-dihydroxy-N-methyl-1-(6-methyl-4-(trifluoromethyl)pyridin-2-yl)-5-oxopyrrolidine-2-carboxamide]",20 nM
5,"Cc1cc(C(F)(F)F)cc(N2C(=O)N(CCN3CCC3)C[C@H]2C(=O)N(C)c2ccc(F)c(Cl)c2)n1 [Example 200, (S)-1-(2-(Azetidin-1-yl)ethyl)-N-(3-chloro-4-fluorophenyl)-N-methyl-3-(6-methyl-4-(trifluoromethyl)pyridin-2-yl)-2-oxoimidazolidine-4-carboxamide]",12 nM
6,"Cc1cc(C(F)(F)F)cc(N2C(=O)N(CC(O)CN(C)C)C[C@H]2C(=O)N(C)c2ccc(F)c(Cl)c2F)n1 (stereo partly drawn) [Example 214, (4S)—N-(3-Chloro-2,4-difluorophenyl)-1-(3-(dimethylamino)-2-hydroxypropyl)-N-methyl-3-(6-methyl-4-(trifluoromethyl)pyridin-2-yl)-2-oxoimidazolidine-4-carboxamide]",11 nM
7,"CCN(C(=O)[C@@H]1C[C@H](N[C@@H]2CN(C(=O)OC(C)(C)C)C[C@H]2O)CN1c1cc(C(F)(F)F)cc(C)n1)c1ccc(F)c(F)c1 (racemic) [Example 135, rac-tert-Butyl (3R,4R)-3-(((3S,5S)-5-((3,4-difluorophenyl)(ethyl)carbamoyl)-1-(6-methyl-4-(trifluoromethyl)-pyridin-2-yl)pyrrolidin-3-yl)amino)-4-hydroxypyrrolidine-1-carboxylate]",223 nM
8,"CCN(C(=O)[C@@H]1C[C@H](N(C)[C@H]2CN(C(=O)OC(C)(C)C)C[C@H]2O)CN1c1cc(C(F)(F)F)cc(C)n1)c1ccc(F)c(F)c1 [Example 144, tert-Butyl (3S,4R)-3-(((3S,5S)-5-((3,4-difluorophenyl)(ethyl)carbamoyl)-1-(6-methyl-4-(trifluoromethyl)pyridin-2-yl)pyrrolidin-3-yl)(methyl)amino)-4-hydroxypyrrolidine-1-carboxylate]",1310 nM
9,"Cc1cc(C(F)(F)F)cc(N2C(=O)[C@@H](O)[C@@H](O)[C@H]2C(=O)N(C)c2ccc(F)c(C)c2)n1 [Example 67, (2S,3S,4S)-N-(4-Fluoro-3-methyl-phenyl)-3,4-dihydroxy-N-methyl-1-(6-methyl-4-(trifluoromethyl)pyridin-2-yl)-5-oxopyrrolidine-2-carboxamide]",6 nM
10,"CCN(C(=O)[C@@H]1C[C@H](NC2CNC(=O)C2)CN1c1cc(C(F)(F)F)cc(C)n1)c1ccc(F)c(F)c1 (stereo partly drawn) [Example 137, (2S,4S)-N-(3,4-Difluorophenyl)-N-ethyl-1-(6-methyl-4-(trifluoromethyl)pyridin-2-yl)-4-((5-oxopyrrolidin-3-yl)amino)pyrrolidine-2-carboxamide]",300 nM
11,"CCN(C(=O)[C@@H]1C[C@H](N)CN1c1nc(C)cc(C)c1C#N)c1cccc(C)c1 [Example 38, (2S,4S)-4-Amino-1-(3-cyano-4,6-dimethylpyridin-2-yl)-N-ethyl-N-(m-tolyl)pyrrolidine-2-carboxamide]",273 nM
12,"CCN(C(=O)[C@@H]1C[C@H](N2CCC(O)C2)CN1c1cc(C(F)(F)F)cc(C)n1)c1ccc(F)c(F)c1 (stereo partly drawn) [Example 129, (3S,5S)-N-(3,4-Difluorophenyl)-N-ethyl-3-hydroxy-1′-(6-methyl-4-(trifluoromethyl)pyridin-2-yl)-[1,3′-bipyrrolidine]-5′-carboxannide]",78 nM
13,"COc1cc(N(C)C(=O)[C@@H]2C[C@H](O)CN2c2nc(C)cc(C(F)(F)F)c2C#N)ccc1F [Example 16, (2S,4S)-1-(3-Cyano-6-methyl-4-(trifluoromethyl)pyridin-2-yl)-N-(4-fluoro-3-methoxyphenyl)-4-hydroxy-N-methylpyrrolidine-2-carboxamide]",274 nM
14,"Cc1cc(C(F)(F)F)cc(N2C(=O)N(CC3(O)CNC3)C[C@H]2C(=O)N(C)c2ccc(F)c(Cl)c2F)n1 [Example 224, (S)—N-(3-Chloro-2,4-difluorophenyl)-1-((3-hydroxyazetidin-3-yl)methyl)-N-methyl-3-(6-methyl-4-(trifluoromethyl)pyridin-2-yl)-2-oxoimidazolidine-4-carboxamide]",6 nM
15,"Cc1cccc(N(C)C(=O)[C@@H]2C[C@H](O)CN2c2cc(C)c(Cl)c(C)n2)c1 [Example 29, (2S,4S)-1-(5-Chloro-4,6-dimethylpyridin-2-yl)-4-hydroxy-N-methyl-N-(m-tolyl)pyrrolidine-2-carboxamide]",172 nM
16,"CCc1cc(C(F)(F)F)cc(N2C(=O)OC[C@H]2C(=O)N(C)c2ccc(F)c(Cl)c2)n1 [Example 115, (S)—N-(3-Chloro-4-fluorophenyl)-3-(6-ethyl-4-(trifluoromethyl)pyridin-2-yl)-N-methyl-2-oxooxazolidine-4-carboxamide]",54 nM
17,"CCN(C(=O)[C@@H]1C[C@@H](N(C)C)CN1c1nc(C)cc(C)c1C#N)c1cccc(C)c1 [Example 41, (2S,4R)-1-(3-Cyano-4,6-dimethylpyridin-2-yl)-4-(dimethylamino)-N-ethyl-N-(m-tolyl)pyrrolidine-2-carboxamide]",263 nM
18,"Cc1cc(C(F)(F)F)cc(N2C(=O)N(CC3CN(C)CCO3)C[C@H]2C(=O)N(C)c2ccc(F)c(Cl)c2F)n1 (stereo partly drawn) [Example 219, (4S)—N-(3-Chloro-2,4-difluorophenyl)-N-methyl-3-(6-methyl-4-(trifluoromethyl)pyridin-2-yl)-1-((4-methylmorpholin-2-yl)methyl)-2-oxoimidazolidine-4-carboxamide]",11 nM
19,"CCN(C(=O)[C@@H]1C[C@H](F)CN1c1nc(C)cc(C)c1C#N)c1ccc(F)c(F)c1 [Example 37, (2S,4S)-1-(3-Cyano-4,6-dimethylpyridin-2-yl)-N-(3,4-difluorophenyl)-N-ethyl-4-fluoropyrrolidine-2-carboxamide]",248 nM
20,"Cc1cc(C(F)(F)F)cc(N2C(=O)[C@H](CN(C)C)C[C@@H]2C(=O)N(C)c2ccc(F)c(Cl)c2)n1 (stereo in doubt) [Example 78, (2R,4S)—N-(3-Chloro-4-fluorophenyl)-4-((dimethylamino)methyl)-N-methyl-1-(6-methyl-4-(trifluoromethyl)pyridin-2-yl)-5-oxopyrrolidine-2-carboxamide]",48 nM
21,"CCc1ccc(N(C)C(=O)[C@@H]2COC(=O)N2c2cc(C(F)(F)F)cc(C)n2)c(F)c1 [Example 112, (S)—N-(4-Ethyl-2-fluorophenyl)-N-methyl-3-(6-methyl-4-(trifluoromethyl)pyridin-2-yl)-2-oxooxazolidine-4-carboxamide]",11 nM
22,"Cc1cc(C(F)(F)F)c(C#N)c(N2C[C@@H](N3CCOC(CO)C3)C[C@H]2C(=O)N(C)c2ccc(F)c(Cl)c2)n1 (stereo partly drawn) [Example 151, (2S,4S)-N-(3-Chloro-4-fluorophenyl)-1-(3-cyano-6-methyl-4-(trifluoromethyl)pyridin-2-yl)-4-(2-(hydroxymethyl)morpholino)-N-methylpyrrolidine-2-carboxamide]",23 nM
23,"Cc1cc(C(F)(F)F)cc(N2C(=O)[C@H]3OC(C)(C)O[C@H]3[C@H]2C(=O)N(C)c2ccc(F)c(Cl)c2F)n1 [Example 69, (3aS,4S,6aS)—N-(3-Chloro-2,4-difluorophenyl)-N,2,2-trimethyl-5-(6-methyl-4-(trifluoromethyl)-pyridin-2-yl)-6-oxotetrahydro-4H-[1,3]dioxolo[4,5-c]pyrrole-4-carboxamide]",69 nM
24,"Cc1cc(C(F)(F)F)c(C#N)c(N2C[C@@H](O)C[C@H]2C(=O)N(C)c2ccccc2)n1 [Example 8, (2S,4S)-1-(3-Cyano-6-methyl-4-(trifluoromethyl)pyridin-2-yl)-4-hydroxy-N-methyl-N-phenylpyrrolidine-2-carboxamide]",180 nM
25,"Cc1cc(C(F)(F)F)c(C#N)c(N2[C@@H](C)CC[C@H]2C(=O)N(C)c2ccc(F)c(Cl)c2)n1 [Example 242, (2S,5S)—N-(3-Chloro-4-fluorophenyl)-1-(3-cyano-6-methyl-4-(trifluoromethyl)pyridin-2-yl)-N,5-dimethylpyrrolidine-2-carboxamide]",311 nM
26,"CCN(C(=O)[C@@H]1C[C@H](O)CN1c1nc(C)cc(C(F)(F)F)n1)c1ccc(F)c(Cl)c1 [Example 64, (2S,4S)—N-(3-Chloro-4-fluorophenyl)-N-ethyl-4-hydroxy-1-(4-methyl-6-(trifluoromethyl)-pyrimidin-2-yl)pyrrolidine-2-carboxamide]",166 nM

# Same assay, conditions: read-out: Polθ IC50; full length N-His, C-term FLAG tagged Polθ, PicoGreen fluorescence, 12 point concentration response
row,SMILES,IC50
1,"Cc1cccc(N(C)C(=O)[C@@H]2[C@@H](O)CCN2c2nc(C)cc(C(F)(F)F)c2C#N)c1 [Example 26, (2S,3S)-1-(3-Cyano-6-methyl-4-(trifluoromethyl)pyridin-2-yl)-3-hydroxy-N-methyl-N-(m-tolyl)pyrrolidine-2-carboxamide]",61 nM
